In brackets after ≈: the same amount, converted by molar mass. Values belong to the compound of their own block, whether it stands above or below them. Activity calls are given as the source filed them. No cut-off for these calls is given here.
Key:
[1] = target: T1, Platelet-derived growth factor receptor beta (Mus musculus, UniProt P05622); assay: Inhibition of PDGF-induced PDGFRbeta phosphorylation in mouse NIH3T3 cells incubated for 1 hr prior to PDGF induction measured after 15 mins by fluorescence assay; type: cell-based
[2] = target: Macrophage colony-stimulating factor 1 receptor (Homo sapiens, UniProt P07333)
Description: Inhibition of cFMS (unknown origin)

[3] = system: Rattus norvegicus; assay: (§1) Oral bioavailability in rat at 10 mg/kg; type: ADME, organism-based; settings: in vivo
[4] = system: Rattus norvegicus; assay: (§2) Cmax in rat at 10 mg/kg, po; type: ADME, organism-based; parameters: dose 10 mg/kg, route oral; settings: in vivo
[5] = system: Rattus norvegicus; assay: (§3) AUC in rat at 10 mg/kg, po; type: ADME, organism-based, Plasma; parameters: dose 10 mg/kg, route oral; settings: in vivo
[6] = Dissociation constant, pKa of the compound; type: physicochemical
[7] = system: MDR1; assay: Apparent permeability across apical to basolateral side in pig LLC-PK1 cells expressing MDR1 assessed as compound recovery; type: ADME, cell-based, Sus scrofa; settings: read-out: Papp
[8] = (§4) Apparent permeability across apical to basolateral side in pig LLC-PK1 cells; type: ADME, cell-based, Sus scrofa; settings: LLC-PK1
[9] = target: Cytochrome P450 3A4 (Homo sapiens, UniProt P08684); assay: Inhibition of CYP3A4 (unknown origin); type: ADME
[10] = target: Cytochrome P450 2D6 (Homo sapiens, UniProt P10635); assay: Inhibition of CYP2D6 (unknown origin); type: ADME
[11] = target: Cytochrome P450 2C19 (Homo sapiens, UniProt P33261); assay: Inhibition of CYP2C19 (unknown origin); type: ADME
[12] = target: T1, Platelet-derived growth factor receptor beta; assay: Inhibition of PDGF-induced PDGFRbeta phosphorylation in mouse NIH3T3 cells incubated for 1 hr prior to PDGF induction measured after 15 mins by fluorescence assay in presence of 50% human plasma; type: cell-based
[13] = target: Mast/stem cell growth factor receptor Kit (Homo sapiens, UniProt P10721); assay: Inhibition of cKIT (unknown origin)
[14] = target: Cytochrome P450 2C9 (Homo sapiens, UniProt P11712); assay: Inhibition of CYP2C9 (unknown origin); type: ADME
[15] = target: T2, Cytochrome P450 1A2 (Homo sapiens, UniProt P05177); assay: Inhibition of CYP1A2 (unknown origin); type: ADME
T2 sequence (P05177 whole entry): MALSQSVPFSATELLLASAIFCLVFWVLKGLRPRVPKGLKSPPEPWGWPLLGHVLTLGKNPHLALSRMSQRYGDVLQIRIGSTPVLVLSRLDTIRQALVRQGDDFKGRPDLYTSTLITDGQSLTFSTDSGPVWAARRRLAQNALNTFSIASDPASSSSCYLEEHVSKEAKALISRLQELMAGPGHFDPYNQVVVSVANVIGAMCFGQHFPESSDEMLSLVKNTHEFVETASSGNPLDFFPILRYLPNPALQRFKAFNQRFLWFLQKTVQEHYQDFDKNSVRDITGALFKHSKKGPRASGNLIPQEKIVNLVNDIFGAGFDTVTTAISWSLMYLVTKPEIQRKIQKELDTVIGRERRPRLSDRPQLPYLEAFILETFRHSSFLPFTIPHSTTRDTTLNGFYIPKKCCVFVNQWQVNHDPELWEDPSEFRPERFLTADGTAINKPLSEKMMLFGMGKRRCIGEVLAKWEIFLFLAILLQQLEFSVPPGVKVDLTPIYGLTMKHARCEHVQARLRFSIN

[16] = Oral bioavailability in cynomolgus monkey at 30 mg/kg; type: ADME, organism-based, Macaca fascicularis; settings: in vivo
[17] = Cmax in cynomolgus monkey at 30 mg/kg, po; type: ADME, organism-based, Macaca fascicularis; parameters: dose 30 mg/kg, route oral; settings: in vivo
[18] = target: Voltage-gated inwardly rectifying potassium channel KCNH2 (Homo sapiens, UniProt Q12809); assay: Inhibition of human ERG
[19] = AUC in cynomolgus monkey at 30 mg/kg, po; type: ADME, organism-based, Macaca fascicularis; parameters: dose 30 mg/kg, route oral; settings: plasma
[20] = system: Rattus norvegicus; assay: Toxicity in rat up to 50 mg/kg, po bid administered for 2 weeks; type: organism-based; parameters: dose 50 mg/kg, route oral; settings: in vivo, 336 h
[21] = as §1; type: ADME, organism-based; settings: in vivo
[22] = system: Mus musculus; assay: In vivo inhibition of PDGFR phosphorylation in tumor of nu/nu nude mouse xenografted with rat C6 cells administered as po qd after 2 to 6 hrs; type: functional, organism-based
[23] = as §2; type: ADME, organism-based; parameters: dose 10 mg/kg, route oral; settings: in vivo
[24] = as §3; type: ADME, organism-based, Plasma; parameters: dose 10 mg/kg, route oral; settings: plasma
[25] = system: LLC-PK1; assay: as §4; type: ADME, cell-based, Sus scrofa; settings: llc-pk1
[26] = Clearance in rat at 1 mg/kg, iv; type: ADME, organism-based; parameters: dose 1 mg/kg, route intravenous; settings: in vivo
[27] = Solubility of the compound; type: physicochemical
[28] = system: Mus musculus; assay: In vivo inhibition of PDGFR phosphorylation in tumor of nu/nu nude mouse xenografted with rat C6 cells at 10 to 100 mg/kg, po qd after 12 hrs; type: functional, organism-based

T1 sequence (P05622 whole entry): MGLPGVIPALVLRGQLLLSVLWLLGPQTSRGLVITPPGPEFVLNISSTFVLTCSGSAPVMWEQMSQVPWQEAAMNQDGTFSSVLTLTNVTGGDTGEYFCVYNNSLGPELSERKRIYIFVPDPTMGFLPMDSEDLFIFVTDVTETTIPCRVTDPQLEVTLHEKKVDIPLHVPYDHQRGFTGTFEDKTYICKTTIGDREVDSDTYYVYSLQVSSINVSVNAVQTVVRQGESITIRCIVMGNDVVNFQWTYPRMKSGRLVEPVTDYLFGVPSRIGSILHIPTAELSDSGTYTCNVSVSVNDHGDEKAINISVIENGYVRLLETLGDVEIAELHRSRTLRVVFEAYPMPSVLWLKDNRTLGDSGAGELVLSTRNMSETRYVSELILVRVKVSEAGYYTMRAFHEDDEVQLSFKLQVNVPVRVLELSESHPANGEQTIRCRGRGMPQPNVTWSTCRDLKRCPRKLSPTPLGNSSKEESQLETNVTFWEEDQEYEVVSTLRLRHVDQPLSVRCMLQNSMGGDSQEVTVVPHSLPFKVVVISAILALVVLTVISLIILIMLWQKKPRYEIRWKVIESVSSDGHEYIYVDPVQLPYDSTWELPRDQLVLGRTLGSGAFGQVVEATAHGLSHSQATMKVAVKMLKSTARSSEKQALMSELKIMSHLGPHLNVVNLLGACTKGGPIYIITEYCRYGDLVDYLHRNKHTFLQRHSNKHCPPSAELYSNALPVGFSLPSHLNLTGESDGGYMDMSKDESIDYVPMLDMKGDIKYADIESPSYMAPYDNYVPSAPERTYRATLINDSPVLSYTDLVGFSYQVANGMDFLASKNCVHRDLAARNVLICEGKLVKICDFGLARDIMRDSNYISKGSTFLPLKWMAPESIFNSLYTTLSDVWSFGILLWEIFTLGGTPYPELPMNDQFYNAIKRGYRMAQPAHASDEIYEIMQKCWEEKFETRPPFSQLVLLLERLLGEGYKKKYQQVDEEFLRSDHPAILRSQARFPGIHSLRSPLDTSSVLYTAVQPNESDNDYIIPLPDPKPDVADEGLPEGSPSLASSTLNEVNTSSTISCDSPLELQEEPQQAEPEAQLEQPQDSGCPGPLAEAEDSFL
Macrophage colony-stimulating factor 1 receptor, sequence (P07333 whole entry): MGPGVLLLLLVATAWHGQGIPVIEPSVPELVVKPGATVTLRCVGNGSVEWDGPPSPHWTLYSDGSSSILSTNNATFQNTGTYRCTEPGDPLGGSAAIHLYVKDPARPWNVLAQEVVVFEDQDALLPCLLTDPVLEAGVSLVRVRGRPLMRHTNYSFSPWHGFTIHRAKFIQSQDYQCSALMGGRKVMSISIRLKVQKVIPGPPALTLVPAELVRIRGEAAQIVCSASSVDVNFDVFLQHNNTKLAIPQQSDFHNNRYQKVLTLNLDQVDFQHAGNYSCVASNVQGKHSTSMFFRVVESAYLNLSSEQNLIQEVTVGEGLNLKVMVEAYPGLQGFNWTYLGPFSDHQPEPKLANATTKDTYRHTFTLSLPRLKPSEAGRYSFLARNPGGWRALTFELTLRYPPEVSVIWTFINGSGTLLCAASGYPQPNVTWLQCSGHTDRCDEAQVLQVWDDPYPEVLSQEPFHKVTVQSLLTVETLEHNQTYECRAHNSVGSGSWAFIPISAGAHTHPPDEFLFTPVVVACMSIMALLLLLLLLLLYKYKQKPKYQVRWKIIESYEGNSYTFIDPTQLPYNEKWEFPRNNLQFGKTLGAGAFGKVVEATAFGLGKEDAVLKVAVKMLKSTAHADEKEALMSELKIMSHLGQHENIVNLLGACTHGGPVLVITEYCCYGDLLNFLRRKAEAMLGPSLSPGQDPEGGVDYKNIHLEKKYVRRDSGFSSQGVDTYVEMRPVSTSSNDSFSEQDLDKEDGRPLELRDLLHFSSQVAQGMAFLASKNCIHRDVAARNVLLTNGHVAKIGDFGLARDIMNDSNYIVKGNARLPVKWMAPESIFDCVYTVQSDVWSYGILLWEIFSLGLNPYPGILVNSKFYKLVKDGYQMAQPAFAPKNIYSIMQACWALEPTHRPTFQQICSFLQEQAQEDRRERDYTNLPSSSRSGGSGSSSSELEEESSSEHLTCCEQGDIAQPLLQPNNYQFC
Mast/stem cell growth factor receptor Kit, sequence (P10721 whole entry): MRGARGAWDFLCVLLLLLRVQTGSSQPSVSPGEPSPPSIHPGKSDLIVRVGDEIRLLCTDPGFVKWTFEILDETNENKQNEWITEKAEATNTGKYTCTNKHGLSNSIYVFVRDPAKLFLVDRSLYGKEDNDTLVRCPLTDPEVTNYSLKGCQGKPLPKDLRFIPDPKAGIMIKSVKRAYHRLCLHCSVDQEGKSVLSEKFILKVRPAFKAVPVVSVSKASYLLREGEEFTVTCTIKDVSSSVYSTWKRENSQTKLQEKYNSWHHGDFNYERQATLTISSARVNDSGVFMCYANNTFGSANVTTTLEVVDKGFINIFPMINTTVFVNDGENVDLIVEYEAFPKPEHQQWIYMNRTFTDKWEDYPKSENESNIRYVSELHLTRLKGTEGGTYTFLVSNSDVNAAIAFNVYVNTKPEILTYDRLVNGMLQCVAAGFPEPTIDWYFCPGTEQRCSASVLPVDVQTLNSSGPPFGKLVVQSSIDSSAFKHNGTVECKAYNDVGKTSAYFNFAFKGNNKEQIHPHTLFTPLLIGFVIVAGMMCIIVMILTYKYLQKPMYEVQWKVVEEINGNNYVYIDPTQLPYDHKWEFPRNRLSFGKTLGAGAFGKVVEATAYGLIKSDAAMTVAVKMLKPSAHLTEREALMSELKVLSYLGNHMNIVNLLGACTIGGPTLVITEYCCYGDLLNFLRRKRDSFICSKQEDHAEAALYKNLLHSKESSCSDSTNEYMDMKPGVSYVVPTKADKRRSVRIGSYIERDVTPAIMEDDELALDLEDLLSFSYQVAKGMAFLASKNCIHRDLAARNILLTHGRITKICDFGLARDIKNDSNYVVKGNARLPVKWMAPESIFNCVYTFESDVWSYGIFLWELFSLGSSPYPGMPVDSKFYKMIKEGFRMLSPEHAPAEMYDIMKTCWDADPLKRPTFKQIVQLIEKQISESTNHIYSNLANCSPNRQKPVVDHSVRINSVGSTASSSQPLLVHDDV
Cytochrome P450 3A4, sequence (P08684 whole entry): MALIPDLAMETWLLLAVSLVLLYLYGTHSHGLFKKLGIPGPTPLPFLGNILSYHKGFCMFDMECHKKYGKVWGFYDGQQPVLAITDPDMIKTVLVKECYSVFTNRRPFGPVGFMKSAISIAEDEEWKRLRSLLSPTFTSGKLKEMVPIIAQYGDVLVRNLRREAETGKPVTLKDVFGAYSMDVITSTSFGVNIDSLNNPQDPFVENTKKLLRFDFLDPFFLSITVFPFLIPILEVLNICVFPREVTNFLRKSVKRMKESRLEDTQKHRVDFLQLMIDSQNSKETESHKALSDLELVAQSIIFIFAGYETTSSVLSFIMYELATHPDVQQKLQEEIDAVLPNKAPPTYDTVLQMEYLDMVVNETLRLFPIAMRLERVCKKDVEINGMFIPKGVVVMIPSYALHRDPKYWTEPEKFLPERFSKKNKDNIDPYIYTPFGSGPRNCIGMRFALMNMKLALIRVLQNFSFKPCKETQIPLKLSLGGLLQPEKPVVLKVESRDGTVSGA
Cytochrome P450 2C19, sequence (P33261 whole entry): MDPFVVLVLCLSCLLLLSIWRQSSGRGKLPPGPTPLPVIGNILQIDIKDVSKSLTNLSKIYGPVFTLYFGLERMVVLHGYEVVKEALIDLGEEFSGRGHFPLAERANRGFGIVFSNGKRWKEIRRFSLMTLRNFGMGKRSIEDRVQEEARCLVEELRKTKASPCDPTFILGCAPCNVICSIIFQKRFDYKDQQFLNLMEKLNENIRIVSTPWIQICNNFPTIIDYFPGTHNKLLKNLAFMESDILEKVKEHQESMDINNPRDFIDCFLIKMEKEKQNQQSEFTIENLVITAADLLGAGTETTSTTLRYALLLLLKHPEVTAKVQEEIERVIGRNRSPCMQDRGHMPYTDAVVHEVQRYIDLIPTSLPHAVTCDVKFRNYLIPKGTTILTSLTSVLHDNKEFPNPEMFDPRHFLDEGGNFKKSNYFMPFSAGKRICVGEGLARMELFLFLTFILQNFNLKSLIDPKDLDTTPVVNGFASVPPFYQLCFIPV
Cytochrome P450 2C9, sequence (P11712 whole entry): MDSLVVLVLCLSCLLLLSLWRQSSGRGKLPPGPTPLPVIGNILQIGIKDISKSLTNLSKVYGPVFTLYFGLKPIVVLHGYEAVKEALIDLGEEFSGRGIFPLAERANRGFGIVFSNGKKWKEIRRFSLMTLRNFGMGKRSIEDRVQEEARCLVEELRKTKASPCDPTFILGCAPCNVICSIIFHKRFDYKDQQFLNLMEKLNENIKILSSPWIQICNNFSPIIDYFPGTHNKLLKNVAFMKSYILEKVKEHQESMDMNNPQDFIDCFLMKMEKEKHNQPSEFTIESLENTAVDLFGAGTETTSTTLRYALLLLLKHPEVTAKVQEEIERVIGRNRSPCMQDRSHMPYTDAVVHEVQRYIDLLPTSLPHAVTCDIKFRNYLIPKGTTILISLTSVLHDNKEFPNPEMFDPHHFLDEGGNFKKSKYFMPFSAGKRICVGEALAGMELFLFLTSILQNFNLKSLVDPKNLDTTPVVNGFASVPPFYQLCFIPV
Cytochrome P450 2D6, sequence (P10635 whole entry): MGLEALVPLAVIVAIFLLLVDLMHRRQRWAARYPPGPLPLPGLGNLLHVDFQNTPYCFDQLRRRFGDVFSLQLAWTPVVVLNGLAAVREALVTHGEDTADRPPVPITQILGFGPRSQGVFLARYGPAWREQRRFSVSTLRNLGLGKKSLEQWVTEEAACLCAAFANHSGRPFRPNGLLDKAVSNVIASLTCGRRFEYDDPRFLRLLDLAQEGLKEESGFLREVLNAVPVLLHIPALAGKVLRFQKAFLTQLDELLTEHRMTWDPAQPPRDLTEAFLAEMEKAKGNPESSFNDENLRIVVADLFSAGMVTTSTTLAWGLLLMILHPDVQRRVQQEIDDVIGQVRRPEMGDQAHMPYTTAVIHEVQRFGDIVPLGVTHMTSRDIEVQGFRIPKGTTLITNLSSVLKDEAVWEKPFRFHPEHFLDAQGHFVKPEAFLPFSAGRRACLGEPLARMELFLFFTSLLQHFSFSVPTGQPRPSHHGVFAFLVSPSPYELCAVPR

SMILES: COCCOc1ccn2c(-c3ccc4cccc(O[C@H]5CN[C@H](C(=O)OC)C5)c4n3)cnc2c1
IC50 [1]: 958 nM | IC50 [2]: > 1000 nM

SMILES: COCCOc1ccn2c(-c3ccc4cccc(O[C@H]5CC[C@H](N)CC5)c4n3)cnc2c1
IC50 [1]: 28 nM | IC50 [2]: > 1000 nM

SMILES: COCCOc1ccn2c(-c3ccc4cccc(O[C@@H]5CN[C@H](C(=O)OC)C5)c4n3)cnc2c1
IC50 [1]: > 1000 nM | IC50 [2]: > 1000 nM

SMILES: COCCOc1ccn2c(-c3ccc4cccc(OCC(C)(C)CN)c4n3)cnc2c1
IC50 [13]: > 1000 nM | IC50 [1]: 18 nM

SMILES: COCCOc1ccn2c(-c3ccc4cccc(OCc5cnc[nH]5)c4n3)cnc2c1
IC50 [1]: > 1000 nM | IC50 [2]: > 1000 nM

SMILES: COCCOc1ccn2c(-c3ccc4cccc(O[C@@H]5CCCNC5)c4n3)cnc2c1
IC50 [1]: 72 nM

SMILES: COCCOc1ccn2c(-c3ccc4cccc(OCC5CCNCC5)c4n3)cnc2c1
IC50 [1]: 34 nM | IC50 [2]: > 1000 nM

SMILES: COCCOc1ccn2c(-c3ccc4cccc(OCCN)c4n3)cnc2c1
IC50 [1]: 176 nM | IC50 [2]: > 1000 nM

SMILES: COCCOc1ccn2c(-c3ccc4cccc(O[C@@H]5CCNC[C@H]5F)c4n3)cnc2c1 [listing 2 of 2 here]
inhibition [28]: inactive | inhibition [22]: Dose-dependent effect

SMILES: COCCOc1ccn2c(-c3ccc4cccc(OCC5CNCCO5)c4n3)cnc2c1 (racemic)
IC50 [1]: 160 nM | IC50 [2]: > 1000 nM

Further lines, with some results ahead:

F [3]: 30% | Cmax [4]: 120 ng/mL | AUC [5]: 2100 ng·h/mL | pKa [6]: 7.4 | recovery [7]: 30% | Papp A→B [8]: 4.4 ×10⁻⁶ cm/s | IC50 [9]: > 10000 nM | IC50 [10]: > 10000 nM | IC50 [11]: > 10000 nM | IC50 [12]: 63 nM | IC50 [13]: 682 nM | IC50 [1]: 4 nM | IC50 [14]: > 10000 nM | IC50 [15]: > 10000 nM
SMILES: COCCOc1ccn2c(-c3ccc4cccc(O[C@@H]5CCNC[C@H]5F)c4n3)cnc2c1 (relative stereo)

IC50 [1]: 5 nM
SMILES: COCCOc1ccn2c(-c3ccc4cccc(O[C@H]5CCCNC5)c4n3)cnc2c1

bioavailability [16]: 6% | Cmax [17]: 190 ng/mL | AUC [19]: 950 ng·h/mL | bioavailability [21]: 28% | EC50 [22]: 0.065 µg/mL (≈ 0.149 µM) | Cmax [23]: 160 ng/mL | AUC [24]: 2300 ng·h/mL | Papp [25]: 3.7 ×10⁻⁶ cm/s | IC50 [10]: > 10000 nM | IC50 [11]: > 10000 nM | IC50 [12]: 70 nM | IC50 [13]: 430 nM | IC50 [1]: 3 nM | IC50 [14]: > 10000 nM | IC50 [15]: > 10000 nM | clearance [26]: 20 mL/min/kg
SMILES: COCCOc1ccn2c(-c3ccc4cccc(O[C@@H]5CCNC[C@H]5F)c4n3)cnc2c1 [listing 1 of 2 here]
IC50 [18]: 3900 nM | Activity [20]: Non-toxic

IC50 [9]: > 10000 nM | IC50 [10]: > 10000 nM | IC50 [11]: > 10000 nM | IC50 [12]: 55 nM | IC50 [13]: 491 nM | IC50 [1]: 3 nM | IC50 [14]: > 10000 nM | IC50 [15]: > 10000 nM
SMILES: COCCOc1ccn2c(-c3ccc4cccc(O[C@H]5CCNC[C@@H]5F)c4n3)cnc2c1

IC50 [1]: 1 nM
SMILES: COCCOc1ccn2c(-c3ccc4cccc(OCC5(F)CCNCC5)c4n3)cnc2c1

IC50 [12]: 29 nM | IC50 [1]: 1 nM
SMILES: COCCOc1ccn2c(-c3ccc4cccc(OCC5CCNC5)c4n3)cnc2c1 (racemic)

IC50 [12]: > 1000 nM | IC50 [1]: 10 nM | IC50 [2]: > 1000 nM
SMILES: COCCOc1ccn2c(-c3ccc4cccc(O[C@@H]5CNC[C@H]5OC)c4n3)cnc2c1 (racemic)

IC50 [1]: 9 nM
SMILES: COCCOc1ccn2c(-c3ccc4cccc(OC5CCN(C)CC5)c4n3)cnc2c1

bioavailability [21]: 13% | Cmax [23]: 70 ng/mL | AUC [24]: 730 ng·h/mL | pKa [6]: 7.5 | recovery [7]: 30% | Papp A→B [8]: 2.7 ×10⁻⁶ cm/s | IC50 [9]: > 10000 nM | IC50 [10]: 5880 nM | IC50 [11]: > 10000 nM | IC50 [12]: 25 nM | IC50 [13]: > 1000 nM | IC50 [1]: 4 nM | IC50 [14]: > 10000 nM | IC50 [15]: > 10000 nM | clearance [26]: 28 mL/min/kg
SMILES: COCCOc1ccn2c(-c3ccc4cccc(O[C@@H]5CCNC[C@@H]5F)c4n3)cnc2c1 (relative stereo)

bioavailability [21]: 16% | Cmax [23]: 70 ng/mL | AUC [24]: 800 ng·h/mL | pKa [6]: 9.3 | recovery [7]: 50% | Papp A→B [8]: 16.3 ×10⁻⁶ cm/s | solubility [27]: > 1000 µg/mL | IC50 [9]: > 10000 nM | IC50 [10]: > 10000 nM | IC50 [11]: > 10000 nM | IC50 [12]: 25 nM | IC50 [13]: 961 nM | IC50 [1]: 3 nM | IC50 [14]: > 10000 nM | IC50 [15]: > 10000 nM | clearance [26]: 33 mL/min/kg | IC50 [2]: > 1000 nM
SMILES: COCCOc1ccn2c(-c3ccc4cccc(OC5CCNCC5)c4n3)cnc2c1

IC50 [1]: 3 nM
SMILES: COCCOc1ccn2c(-c3ccc4cccc(O[C@@H]5CCNC[C@H]5O)c4n3)cnc2c1 (racemic)

IC50 [1]: 2 nM
SMILES: COCCOc1ccn2c(-c3ccc4cccc(O[C@@H]5CCNC[C@@H]5O)c4n3)cnc2c1 (racemic)

From ChEMBL document CHEMBL3108676, “Discovery of a Novel Class of Imidazo[1,2-a]Pyridines with Potent PDGFR Activity and Oral Bioavailability” (ACS Med Chem Lett, 2014)
